Experimental data published in PubChem BioAssay AID2060354 (Molecular Pharmacology Branch, DTP, NCI, 2025).

System: 519858-162-T-J1-PDC spheroid growth inhibition
Assay: Anticancer human tumor 519858-162-T-J1-PDC patient-derived colon adenocarcinoma cell line growth inhibition [TAK]
Conditions: spheroids with HUVEC and MSC; for IC50: curve of first compound; for viability, T/C: stronger effect = lower value
How it was run: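 Spheroids of 60% malignant cells, 25% HUVEC and 15% hMSC were exposed to targeted agents combined with TAK-243 or ipatasertib. Concentrations started at or near clinical Cmax (10 microM if unknown) and descended in half-log steps.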

[1] = second compound 0.3 µM, first compound 0.0316 µM
[2] = second compound 0.3 µM, first compound 0.1 µM
[3] = second compound 0.3 µM, first compound 0.316 µM
[4] = second compound 0.3 µM, first compound 1 µM
[5] = second compound 0.3 µM, first compound 3.16 µM
[6] = second compound 0.3 µM, first compound 10 µM
[7] = second compound 0.949 µM, first compound 0.0316 µM
[8] = second compound 0.949 µM, first compound 0.1 µM
[9] = second compound 0.949 µM, first compound 0.316 µM
[10] = second compound 0.949 µM, first compound 1 µM
[11] = second compound 0.949 µM, first compound 3.16 µM
[12] = second compound 0.949 µM, first compound 10 µM
[13] = second compound 3 µM, first compound 0.0316 µM
[14] = second compound 3 µM, first compound 0.1 µM
[15] = second compound 3 µM, first compound 0.316 µM
[16] = second compound 3 µM, first compound 1 µM
[17] = second compound 3 µM, first compound 3.16 µM
[18] = second compound 3 µM, first compound 10 µM
[19] = second compound 9.49 µM, first compound 0.0316 µM
[20] = second compound 9.49 µM, first compound 0.1 µM
[21] = second compound 9.49 µM, first compound 0.316 µM
[22] = second compound 9.49 µM, first compound 1 µM
[23] = second compound 9.49 µM, first compound 3.16 µM
[24] = second compound 9.49 µM, first compound 10 µM
[25] = second compound 30 µM, first compound 0.0316 µM
[26] = second compound 30 µM, first compound 0.1 µM
[27] = second compound 30 µM, first compound 0.316 µM
[28] = second compound 30 µM, first compound 1 µM
[29] = second compound 30 µM, first compound 3.16 µM
[30] = second compound 30 µM, first compound 10 µM
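Further: each agent tested in combination with TAK-243 or ipatasertib; spheroids exposed to drugs for 7 days.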

CC(C)(C)c1nc(-c2cccc(NS(=O)(=O)c3c(F)cccc3F)c2F)c(-c2ccnc(N)n2)s1 + CC(C)NCC(C(=O)N1CCN(c2ncnc3c2C(C)CC3O)CC1)c1ccc(Cl)cc1
IC50 (second compound 0.3 µM): > 10 µM
IC50 (second compound 0.949 µM): > 10 µM
IC50 (second compound 3 µM): > 10 µM
IC50 (second compound 9.49 µM): > 10 µM
IC50 (second compound 30 µM): > 10 µM
viability, T/C [1]: 112%
viability, T/C [2]: 128%
viability, T/C [3]: 115%
viability, T/C [4]: 130%
viability, T/C [5]: 107%
viability, T/C [6]: 77.9%
viability, T/C [7]: 109%
viability, T/C [8]: 115%
viability, T/C [9]: 130%
viability, T/C [10]: 113%
viability, T/C [11]: 100%
viability, T/C [12]: 86.7%
viability, T/C [13]: 102%
viability, T/C [14]: 102%
viability, T/C [15]: 116%
viability, T/C [16]: 97.3%
viability, T/C [17]: 106%
viability, T/C [18]: 61.2%
viability, T/C [19]: 104%
viability, T/C [20]: 92.6%
viability, T/C [21]: 112%
viability, T/C [22]: 91.6%
viability, T/C [23]: 84.4%
viability, T/C [24]: 72.6%
viability, T/C [25]: 105%
viability, T/C [26]: 86.9%
viability, T/C [27]: 98.1%
viability, T/C [28]: 82.2%
viability, T/C [29]: 83.2%
viability, T/C [30]: 75.4%

CC(C)n1nc(-c2ccc3oc(N)nc3c2)c2c(N)ncnc21 + CC(C)NCC(C(=O)N1CCN(c2ncnc3c2C(C)CC3O)CC1)c1ccc(Cl)cc1
IC50 (second compound 0.3 µM): > 0.1 µM
IC50 (second compound 0.949 µM): > 0.1 µM
IC50 (second compound 3 µM): > 0.1 µM
IC50 (second compound 9.49 µM): > 0.1 µM
IC50 (second compound 30 µM): > 0.1 µM
viability, T/C (second compound 0.3 µM, first compound 0.000316 µM): 110%
viability, T/C (second compound 0.3 µM, first compound 0.001 µM): 78.7%
viability, T/C (second compound 0.3 µM, first compound 0.00316 µM): 89.7%
viability, T/C (second compound 0.3 µM, first compound 0.01 µM): 89.7%
viability, T/C [1]: 93.8%
viability, T/C [2]: 68.1%
viability, T/C (second compound 0.949 µM, first compound 0.000316 µM): 85.7%
viability, T/C (second compound 0.949 µM, first compound 0.001 µM): 88.2%
viability, T/C (second compound 0.949 µM, first compound 0.00316 µM): 107%
viability, T/C (second compound 0.949 µM, first compound 0.01 µM): 83.8%
viability, T/C [7]: 90%
viability, T/C [8]: 71.1%
viability, T/C (second compound 3 µM, first compound 0.000316 µM): 80.5%
viability, T/C (second compound 3 µM, first compound 0.001 µM): 102%
viability, T/C (second compound 3 µM, first compound 0.00316 µM): 89.3%
viability, T/C (second compound 3 µM, first compound 0.01 µM): 83.9%
viability, T/C [13]: 71.4%
viability, T/C [14]: 72.2%
viability, T/C (second compound 9.49 µM, first compound 0.000316 µM): 81.9%
viability, T/C (second compound 9.49 µM, first compound 0.001 µM): 90.1%
viability, T/C (second compound 9.49 µM, first compound 0.00316 µM): 84.1%
viability, T/C (second compound 9.49 µM, first compound 0.01 µM): 93.7%
viability, T/C [19]: 74.1%
viability, T/C [20]: 73.9%
viability, T/C (second compound 30 µM, first compound 0.000316 µM): 107%
viability, T/C (second compound 30 µM, first compound 0.001 µM): 80.2%
viability, T/C (second compound 30 µM, first compound 0.00316 µM): 105%
viability, T/C (second compound 30 µM, first compound 0.01 µM): 79%
viability, T/C [25]: 67.1%
viability, T/C [26]: 72.2%

CCCS(=O)(=O)Nc1ccc(F)c(C(=O)c2c[nH]c3ncc(-c4ccc(Cl)cc4)cc23)c1F + CC(C)NCC(C(=O)N1CCN(c2ncnc3c2C(C)CC3O)CC1)c1ccc(Cl)cc1
IC50 (second compound 0.3 µM): > 100 µM
IC50 (second compound 0.949 µM): > 100 µM
IC50 (second compound 3 µM): > 100 µM
IC50 (second compound 9.49 µM): > 100 µM
IC50 (second compound 30 µM): 30.4 µM
viability, T/C [3]: 85.8%
viability, T/C [4]: 109%
viability, T/C [5]: 95.8%
viability, T/C [6]: 109%
viability, T/C (second compound 0.3 µM, first compound 31.6 µM): 90.6%
viability, T/C (second compound 0.3 µM, first compound 100 µM): 103%
viability, T/C [9]: 74.8%
viability, T/C [10]: 99.7%
viability, T/C [11]: 118%
viability, T/C [12]: 83.1%
viability, T/C (second compound 0.949 µM, first compound 31.6 µM): 51%
viability, T/C (second compound 0.949 µM, first compound 100 µM): 99.9%
viability, T/C [15]: 106%
viability, T/C [16]: 102%
viability, T/C [17]: 114%
viability, T/C [18]: 82.8%
viability, T/C (second compound 3 µM, first compound 31.6 µM): 99.8%
viability, T/C (second compound 3 µM, first compound 100 µM): 113%
viability, T/C [21]: 99.8%
viability, T/C [22]: 103%
viability, T/C [23]: 84.8%
viability, T/C [24]: 88.1%
viability, T/C (second compound 9.49 µM, first compound 31.6 µM): 77.9%
viability, T/C (second compound 9.49 µM, first compound 100 µM): 96%
viability, T/C [27]: 76.3%
viability, T/C [28]: 101%
viability, T/C [29]: 94.9%
viability, T/C [30]: 61%
viability, T/C (second compound 30 µM, first compound 31.6 µM): 23.6%
viability, T/C (second compound 30 µM, first compound 100 µM): 75.5%
